The text below walks through data of patent publication US9603922B2, “Modulation of NKT cell activity with antigen-loaded CD1d molecules” (VACCINEX, INC., priority 2007, dated 2017).

The test system of assay [1] is iNKT cells. The assay is described as follows: Activity in vitro of ceramide-like glycolipid antigens (Table 3). The class given is cell-based, mouse. Conditions: partly also in vivo. The protocol: The ability of a composition of the present invention to modulate an immune response can be readily determined by an in vitro assay. NKT cells for use in the assays include transformed NKT cell lines, or NKT cells which are isolated from a mammal, e.g., from a human or from a rodent such as a mouse. NKT cells can be isolated from a mammal by sorting cells that bind CD1d:α-GalCer tetramers.
The NKT cells employed in the assays are incubated under conditions suitable for proliferation. […] Serial dilutions of the compound can be added to the NKT cell culture medium.
(§1) Alternatively, rather than measurement of an expressed protein such as IL-4 or IFN-γ, modulation of NKT cell activation can be determined by changes in antigen-dependent T cell proliferation as measured by radiolabelling techniques as are recognized in the art. For example, a labeled (e.g., tritiated) nucleotide may be introduced to an assay culture medium. Incorporation of such a tagged nucleotide into DNA serves as a measure of T cell proliferation. […] A difference in the level of T cell proliferation following contact with the compound of the invention indicates the complex modulates activity of the T cells. For example, a decrease in NKT cell proliferation indicates the compound can suppress an immune response. An increase in NKT cell proliferation indicates the compound can stimulate an immune response.

In assay [2] the test system is mouse iNKT hybridoma / human CD1d + HeLa cells. The assay is described as follows: Presentation to mouse iNKT hybridoma by human CD1d + HeLa cells (Table 3 comments). In kind it is cell-based.
A further assay concerns mouse iNKT hybridoma. The assay is described as follows: iNKT hybridoma stimulation assay (Table 3 comments). In kind it is cell-based. An excerpt: (§2) The ability of a composition of the present invention to modulate an immune response can be readily determined by an in vitro assay. NKT cells for use in the assays include transformed NKT cell lines, or NKT cells which are isolated from a mammal, e.g., from a human or from a rodent such as a mouse. NKT cells can be isolated from a mammal by sorting cells that bind CD1d:α-GalCer tetramers. See, for example, Benlagha et al., J Exp Med 191 (2000), pp. 1895-1903; Matsuda et al., J Exp Med 192 (2000), pp. 741-754; and Karadimitris et al., Proc Natl Acad Sci USA 98 (2001), pp. 3294-3298. A suitable assay to determine if a compound of the present invention is capable of modulating the activity of NKT cells is conducted by coculturing NKT cells and antigen presenting cells, adding the particular compound of interest to the culture medium that targets either the antigen presenting cells or the NKT cells directly, and measuring IL-4 or IFN-γ production. A significant increase or decrease in IL-4 or IFN-γ production over the same co-culture of cells in the absence of the compound of the invention or, preferably, in the presence of a compound of the invention with a non-targeting antibody indicates stimulation or inhibition of NKT cells.
The NKT cells employed in the assays are incubated under conditions suitable for proliferation. For example, an NKT cell hybridoma is suitably incubated at about 37° C. and 5% CO2 in complete culture medium (RPMI 1640 supplemented with 10% FBS, penicillin/streptomycin, L-glutamine and 5×10−5 M 2-mercaptoethanol). Serial dilutions of the compound can be added to the NKT cell culture medium.

Assay [3] deals with iNKT cells. Put plainly: Activity in vivo of ceramide-like glycolipid antigens, serum cytokine response (Table 3). To be noted: serum cytokines. The text has this: In vivo assays also may be suitably employed to determine the ability of a composition of the invention to modulate the activity of NKT cells. For example, a composition of interest can be assayed for its ability to stimulate NKT cell activation or inhibit tumor growth. For example, a composition of the invention can be administered to a mammal such as a mouse, before or after challenge with a tumorigenic dose of transformed cells and the presence or size of growing tumors may be monitored.

In the next assay the test system is splenocytes. Put plainly: Splenocyte stimulation assay: proliferation and cytokine secretion (Table 3 comments). To be noted: for Comments: cytokine secretion (IL-4, IFNγ): cytokine secretion assays; for Comments: IL-4 relative to IFNγ: in vitro with splenocytes from NZB/W F1 mice. The class given is cell-based, mouse.
From the text: as §2, §1

The test system of assay [4] is iNKT cells. To be noted: reported by others, in vivo IFNγ; cited from earlier work.
A further assay concerns SLE in NZB/W F1 mice. Put plainly: SLE in NZB/W F1 mice (Table 3 comments). The class given is in vivo, mouse.
Another assay relates to human iNKT cells. Put plainly: Recognition by human iNKT cells (Table 3 comments). In kind it is cell-based.

In the case of `CCCCCCCCCCCCCCCCCCCCCCCCCC(=O)N[C@@H](COC1OC(CO)C(O)C(O)C1O)[C@H](O)[C@H](O)CCCCCCCCCCCCCC` (stereo partly drawn) [DB04-1 (KRN 7000), reference compound], in the assay with iNKT cells [1], the “Comments: iNKT agonist activity and cytokine profile in words” value was “KRN7000. Strong agonist, mixed IL-4 and IFNγ response both in vivo and in vitro”.
On to `CCCCCCCCCCCCCCCCCC(=O)N[C@@H](COC1OC(CO)C(O)C(O)C1O)[C@H](O)[C@H](O)CCCCCCCCCCCCCC` (stereo partly drawn) [YTC03-15], for which the “Comments: activity when presented to mouse iNKT hybridoma by human CD1d + HeLa cells” value in assay [2] is on record as “EXTREMELY active when presented to mouse iNKT hybridoma by human CD1d + HeLa cells”.
As for `CCCCCCCCCCCCCC[C@@H](O)[C@@H](O)[C@H](COC1OC(CO)C(O)C(O)C1O)NC(=O)CCCCCCCCC` (stereo partly drawn) [YTC03-34], the “Comments: activity in iNKT hybridoma stimulation assay” value in the assay with mouse iNKT hybridoma is on record as “Moderate activity with mouse iNKT hybridoma”. In the assay on iNKT cells [3], the “Comments: in vivo cytokine response in words” value was “Active in vivo with good IL-4 production assoc. with weak IFNgamma and weak IL-12 p70”.
`CCCCCCCCCCCCCCCCCCCCCCCC(=O)N[C@@H](COC1OC(CO)C(O)C(O)C1O)[C@H](O)CCCCCC` (stereo partly drawn) [AH04-2]: the “Comments: activity in iNKT hybridoma stimulation assay” value in the assay on mouse iNKT hybridoma is “About a half log more potent than OCH in hybridoma stimulation assay”.
As to `CCCCC\C=C/C=C/C=C/CCCCCCC(=O)N[C@@H](COC1OC(CO)C(O)C(O)C1O)[C@H](O)[C@H](O)CCCCCCCCCCCCCC` (stereo partly drawn) [DB05-14], in the assay on splenocytes, the “Comments: cytokine secretion (IL-4, IFNγ)” value (shortened to “Comments: cytokine secretion”) is given as “strong IL-4 secretion bias” and the “Comments: splenocyte proliferation” value was “Very active in prolif”.
Taken in the same sequence, the figures for `CCCC/C=C/C=C/C=C\CCCCCCCC(=O)N[C@@H](COC1OC(CO)C(O)C(O)C1O)[C@H](O)[C@H](O)CCCCCCCCCCCCCC` (stereo partly drawn) [DB05-17] were “moderately strong in cytokine secretion assays with moderate IL-4 predominance” and “Weak in splenocyte prolif”.
`CCCCC/C=C\C/C=C\C/C=C\C/C=C\CCCC(=O)N[C@@H](COC1OC(CO)C(O)C(O)C1O)[C@H](O)[C@H](O)CCCCCCCCCCCCCC` (stereo partly drawn) [DB03-5]: in the assay on iNKT cells [1], the “Comments: iNKT agonist activity and cytokine profile in words” value was ““Type 2 Cytokine bias”: Strong inducer of iNKT cell IL-4 response, with blunted IFNγ and NK cell transactivation”.
In the case of `CCCCCCCCCCCCCCCCCCCCCCCCCC(=O)N[C@@H](CCC1OC(CO)C(O)C(O)C1O)[C@H](O)[C@H](O)CCCCCCCCCCCCCC` (stereo partly drawn) [RF03-1], the “Comments: reported agonist activity” value in the assay with iNKT cells [4] is “C-glycoside of KRN7000. Reported to be strong agonist, with enhanced IFNγ production in vivo. May have slower kinetics of activation”.
For the compound `CCCCCCCCCCCCCCCCCCCCCCCC(=O)N[C@@H](COC1OC(C)[C@@H](O)C(O)C1O)[C@H](O)[C@H](O)CCCCCCCCCCCCCC` (stereo partly drawn) [DB03-8], the “Comments: in vivo cytokine response in words” value in the assay with iNKT cells [3] is reported as “No serum cytokine response in vivo”. Also, the “Comments: iNKT agonist activity and cytokine profile in words” value with iNKT cells [1] is reported as “Weak iNKT agonist activity in vitro”. Moreover, the “Comments: effect on SLE” value in the assay on SLE in NZB/W F1 mice is “exacerbates SLE in NZB/W F1 mice”.
With `CCCCCC/C=C\C=C/CCCCCCCC(=O)N[C@@H](COC1OC(CO)C(O)C(O)C1O)[C@H](O)[C@H](O)CCCCCCCCCCCCCC` (stereo partly drawn) [DB05-11], the “Comments: splenocyte proliferation” value in the assay with splenocytes is reported as “possibly more active in proliferation assay”. In the assay on iNKT cells [1], the “Comments: iNKT agonist activity and cytokine profile in words” value is listed as “A potent Th2-biased analogue similar to DB05-9”.
Take `CCCCCCCCCCCCCC[C@@H](O)[C@@H](O)[C@H](COC1OC(CO)C(O)C(O)C1O)NC(=O)C(c1ccccc1)c1ccccc1` (stereo partly drawn) [YTC03-17]: the “Comments: in vivo cytokine response in words” value in the assay with iNKT cells [3] is recorded as “no activity detectable in vivo (cytokine stimulation)”. Moreover, in the assay on iNKT cells [1], the “Comments: iNKT agonist activity and cytokine profile in words” value is recorded as “Very strong agonist in some in vitro studies”.
On to `CCCCC/C=C\C/C=C\CCCCCCCCCC(=O)N[C@@H](COC1OC(CO)C(O)C(O)C1O)[C@H](O)[C@H](O)CCCCCCCCCCCCCC` (stereo partly drawn) [DB06-15], for which, in the assay with splenocytes, the “Comments: cytokine secretion” value is “Weak IL-4 and even weaker INFg secretion”; the “Comments: splenocyte proliferation” value is on record as “Moderately active in splenocyte prolif”.
On to `CCCCCCCCCCCCCC[C@@H](O)[C@@H](O)[C@H](COC1OC(CO)C(O)C(O)C1O)NC(=O)Cc1ccc(OC)c(OC)c1` (stereo partly drawn) [YTC03-24], for which, in the assay on splenocytes, the “Comments: IL-4 relative to IFNγ” value is “Possible enhanced IL-4 relative to IFNγ in vitro with splenocytes from NZB/W F1 mice”.
Turning to `CCCCCCCCCCCCCC[C@@H](O)[C@@H](O)[C@H](COC1OC(CO)C(O)C(O)C1O)NC(=O)Cc1ccc(F)cc1` (stereo partly drawn) [YTC03-30], in the assay with splenocytes, the “Comments: IL-4 relative to IFNγ” value was “Possible enhanced IL-4 relative to IFNγ”. Further, the “Comments: activity when presented to mouse iNKT hybridoma by human CD1d + HeLa cells” value in assay [2] is recorded as “EXTREMELY active”.
As to `CCCCCCCCCCCCCCCCCCCCCCCC(=O)N[C@@H](COC1OC(CO)C(O)C(O)C1O)[C@H](O)[C@H](O)CCCCCCCCCCCCCC` (stereo partly drawn) [DB02-1], the “Comments: iNKT agonist activity and cytokine profile in words” value in the assay on iNKT cells [1] was “Moderate to weak iNKT agonist in vitro and in vivo. Gives reasonably strong early IL-4 response, with reduced late IFNγ like DB03-4 or OCH”.
Consider `CCCCC/C=C\C=C\CCCCCCCCC(=O)N[C@@H](COC1OC(CO)C(O)C(O)C1O)[C@H](O)[C@H](O)CCCCCCCCCCCCCC` (stereo partly drawn) [DB05-9], for which the “Comments: iNKT agonist activity and cytokine profile in words” value in the assay on iNKT cells [1] is “A potent Th2-biased agonist in vitro. Not tested yet in vivo (122206)”.
For `CCCC/C=C\C/C=C\CCCCCCCCCC(=O)N[C@@H](COC1OC(CO)C(O)C(O)C1O)[C@H](O)[C@H](O)CCCCCCCCCCCCCC` (stereo partly drawn) [DB03-4], the “Comments: iNKT agonist activity and cytokine profile in words” value in the assay on iNKT cells [1] is ““Type 2 Cytokine bias”: Strong inducer of iNKT cell IL-4 response, with blunted IFNγ and NK cell transactivation”.
Turning to `CCCCCCCCCCCCCCCCCCCCCCCCCC(=O)N[C@@H](CSC1OC(CO)C(O)C(O)C1O)[C@H](O)[C@H](O)CCCCCCCCCCCCCC` (stereo partly drawn) [SKRN 7000, reference compound], in the assay on mouse iNKT hybridoma, the “Comments: activity in iNKT hybridoma stimulation assay” value is “No agonist activity in iNKT hybridoma assay” and the “Comments: autoreactivity of iNKT cell hybridoma” value is “seemed to reduce autoreactivity of iNKT cell hybridoma”.
On to `CCCCCCCCCCCCCCCCCCCCCCCCCC(=O)N[C@@H](COC1OC(C)[C@@H](O)C(O)C1O)[C@H](O)[C@H](O)CCCCCCCCCCCCCC` (stereo partly drawn) [DB06-14], for which, in the assay with splenocytes, the “Comments: cytokine secretion” value is “moderate IL-4 secretion at high concentration with weak IFNg” and the “Comments: splenocyte proliferation” value is listed as “Minimal or no prolif”. Besides, the “Comments: activity in splenocyte stimulation assay” value in the assay on splenocytes (overall activity) is given as “Weakly active in splenocyte stimulation in vitro”.
Take `CCCCCCCCCCCCCCCCCCCCCCCC(=O)N[C@@H](COC1OC(CO)C(O)C(O)C1O)[C@H](O)[C@H](O)CCCCC` (stereo partly drawn) [AH04-1, reference compound]: in the assay on iNKT cells [1], the “Comments: iNKT agonist activity and cytokine profile in words” value is “Weaker agonist than DB03-4 in our hands, and skewing of cytokine response not very impressive in most assays”. Moreover, the “Comments: recognition by human iNKT cells” value in the assay with human iNKT cells is “seems NOT to be recognized by human iNKT cells”.
